According to ChEMBL document CHEMBL1147507, “Preliminary in vitro studies on two potent, water-soluble trimethoprim analogues with exceptional species selectivity against dihydrofolate reductase from Pneumocystis carinii and Mycobacterium avium” (Bioorg Med Chem Lett, 2004):

How the values were obtained:
Dihydrofolate reductase [1] = target: T1, Dihydrofolate reductase (Rattus norvegicus, UniProt Q920D2)
T1 sequence (Q920D2 whole entry): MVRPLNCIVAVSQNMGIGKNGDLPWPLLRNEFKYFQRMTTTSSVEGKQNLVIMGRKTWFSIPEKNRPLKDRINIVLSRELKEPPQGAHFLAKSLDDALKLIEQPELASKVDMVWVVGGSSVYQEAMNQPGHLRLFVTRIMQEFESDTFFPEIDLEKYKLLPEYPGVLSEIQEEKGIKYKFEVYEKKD
Description: Inhibitory activity against rat dihydrofolate reductase

[2] = Selectivity index was determined as ratio of IC50 against rat DHFR to that of IC50 against Pneumocystis carinii DHFR
[3] = Selectivity index was determined as ratio of IC50 against rat DHFR to that of IC50 against Toxoplasma gondii DHFR
Dihydrofolate reductase [4] = target: T2, Dihydrofolate reductase (Mycobacterium avium, UniProt O30463)
T2 sequence (O30463 whole entry): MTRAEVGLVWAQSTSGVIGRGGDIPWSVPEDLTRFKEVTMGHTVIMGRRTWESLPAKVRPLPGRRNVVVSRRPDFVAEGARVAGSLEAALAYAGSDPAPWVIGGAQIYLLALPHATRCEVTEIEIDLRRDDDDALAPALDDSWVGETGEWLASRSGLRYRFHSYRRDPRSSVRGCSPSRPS
Description: Inhibitory concentration against Mycobacterium avium dihydrofolate reductase

[5] = target: T3, Bifunctional dihydrofolate reductase-thymidylate synthase (Toxoplasma gondii, UniProt Q07422)
T3 sequence (Q07422 whole entry): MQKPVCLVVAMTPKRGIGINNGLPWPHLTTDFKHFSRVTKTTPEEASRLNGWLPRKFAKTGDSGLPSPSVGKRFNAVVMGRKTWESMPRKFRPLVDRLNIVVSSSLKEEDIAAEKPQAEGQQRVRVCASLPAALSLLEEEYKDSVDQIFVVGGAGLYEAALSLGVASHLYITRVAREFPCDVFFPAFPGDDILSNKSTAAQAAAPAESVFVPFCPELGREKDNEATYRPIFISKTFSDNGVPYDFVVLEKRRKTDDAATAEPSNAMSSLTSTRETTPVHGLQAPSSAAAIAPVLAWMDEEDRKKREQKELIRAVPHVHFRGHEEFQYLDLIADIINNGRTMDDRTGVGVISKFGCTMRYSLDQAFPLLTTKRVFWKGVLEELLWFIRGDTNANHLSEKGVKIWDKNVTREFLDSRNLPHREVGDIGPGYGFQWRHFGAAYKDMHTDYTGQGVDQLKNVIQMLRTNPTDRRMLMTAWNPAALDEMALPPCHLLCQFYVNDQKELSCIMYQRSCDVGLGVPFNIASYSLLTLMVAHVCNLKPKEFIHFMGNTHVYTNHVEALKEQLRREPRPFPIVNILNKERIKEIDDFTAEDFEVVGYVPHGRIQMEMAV
Description: Inhibitory concentration against Toxoplasma gondii dihydrofolate reductase

Dihydrofolate reductase [6] = target: T4, Dihydrofolate reductase (Pneumocystis carinii, UniProt P16184)
T4 sequence (P16184 whole entry): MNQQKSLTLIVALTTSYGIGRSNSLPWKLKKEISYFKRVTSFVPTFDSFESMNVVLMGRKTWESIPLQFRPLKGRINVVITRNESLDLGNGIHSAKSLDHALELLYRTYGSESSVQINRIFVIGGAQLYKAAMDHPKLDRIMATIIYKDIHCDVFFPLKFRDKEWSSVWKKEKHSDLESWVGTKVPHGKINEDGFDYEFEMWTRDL
Description: Inhibitory concentration against Pneumocystis carinii dihydrofolate reductase

[7] = Selectivity index was determined as ratio of IC50 against rat DHFR to that of IC50 against Mycobacterium avium DHFR

| Compound | IC50 (Dihydrofolate reductase [1]) | Ratio [2] | Ratio [3] | IC50 (Dihydrofolate reductase [4]) | IC50 [5] | IC50 (Dihydrofolate reductase [6]) | Ratio [7] |
| --- | --- | --- | --- | --- | --- | --- | --- |
| COc1cc(Cc2cnc(N)nc2N)cc(C#CCCCC(=O)O)c1OC | 5000 nM | – | – | – | – | – | – |
| COc1cc(Cc2cnc(N)nc2N)cc(C#Cc2ccc(C(=O)O)cc2)c1OC | 88000 nM | 73 | 210 | 8.2 nM | 420 nM | 1200 nM | 11000 |
| COc1ccc(C#Cc2ccc(C(=O)O)cc2)cc1Cc1cnc(N)nc1N | – | 6.3 | 24 | – | – | – | 2200 |
